According to patent US10435361B2, “Kinase inhibitors” (Topivert Pharma Limited, priority 2013, dated 2019):

Assays:
[1] = Hydrolytic stability study (DMSO/water 3:1, 60° C.); type: physicochemical
Protocol: Chemical stability of compounds of the invention was assessed in a mixture of DMSO and water (3:1) at a test compound concentration of 1 mg/mL
Agilent, Waters X-Select C18, 2.5 μm, 4.6×30 mm column, 4 min method, 5-95%
MeCN/water (0.1% formic acid).
Column Oven Temperature 40° C.
Sample Preparation • A 1.0 mg sample of test compound was dissolved in 750 μL of DMSO. Water (250 μL) was added slowly, ensuring no precipitation occurred.
Recording Stability • A 50 μL aliquot of the test solution was removed and analysed in duplicate by 5 μL HPLC injections. The peak area for the test compound was recorded following manual integration of the corresponding UV trace. • The test solution was heated to 60° C., with stirring, and 50 μL aliquots removed for HPLC analysis at 5 and 24 h timepoints.

BDF1 mice = test: TNBS-induced colitis in mice; type: in vivo; conditions: conducted over 2 days; vehicle corn oil/transcutol/maisine/cremophor ELP
Protocol: Non-fasted, 10-12 week old, male BDF1 mice are dosed by oral gavage twice daily with either vehicle (5 mL/kg), reference item (Budesonide 2.5 mg/kg) or test compound (1 or 5 mg/kg) one day before (Day −1) stimulation of the inflammatory response by treatment with 2,4,6-trinitrobenzenesulphonic acid (TNBS) (15 mg/mL in 50% ethanol/50% saline). On Day 0 of the study TNBS (200 μL) is administered intra-colonically via a plastic catheter with BID dosing of the vehicle, reference or test compound continuing for 2 or 4 days. During the study, animals are weighed every day and stool observations are made and recorded as a score, based on stool consistency. At the time of sacrifice on Day 2 (or Day 4), the large intestine is removed and the length and weight recorded. Sections of the colon are taken for histopathology scoring to determine disease severity.

HT29 cells = test: IL-1β-induced IL-8 release in HT29 cells; type: cell-based; conditions: Homo sapiens, HT-29, assay (d), read-out: IC50 Values for Inhibition of Cytokine Release HT29 cells IL-8
Protocol: HT29 cells, a human colon adenocarcinoma cell line, are plated in a 96 well plate (24 hr) and pre-treated with compounds at the desired concentration for 2 hours before addition of 5 ng/mL of IL-1β (Abcam) for 24 hours. Supernatants are harvested for IL-8 quantification by Sandwich ELISA (Duo-set, R&D System). The IC50 is determined from the dose response curve.

PBMCs [2] = test: IL-2 and IFN gamma release in CD3/CD28 stimulated PBMC cells; type: cell-based; conditions: Homo sapiens, assay (c)
Procedure, shortened: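 Healthy-donor PBMCs, density-gradient isolated, stimulated on plates pre-coated with anti-CD3 (0.3 μg/mL) and anti-CD28 (3 μg/mL) antibodies, with compound, for 3 days under standard culture conditions. IC50 derived from the dose-response curve.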

PBMCs [3] = test: Cell mitosis assay in PBMCs; type: cell-based; conditions: Homo sapiens, PBMC, 5 μg/mL
Procedure, shortened: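 Human PBMCs from healthy donors, density-gradient isolated, stimulated with 2% PHA 48 h, then exposed 20 h to test compounds; demecolcine 0.1 μg/mL added 2 h before harvest. Fixed/permeabilised cells stained for phospho-histone H3 and propidium iodide; mitotic lymphocytes counted by flow cytometry.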

PBMCs [4] = test: LPS-induced TNFα/IL-8 release in PBMC cells; type: cell-based; conditions: Homo sapiens, assay (b)
Procedure, shortened: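 Healthy-donor PBMCs isolated by density gradient were pretreated with compound for 2 h, then stimulated with 1 ng/mL LPS (E. coli 0111:B4) for 24 h at 37° C., 5% CO2. IL-8 and TNFα in supernatants measured by sandwich ELISA.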

SCID animals = test: Adoptive transfer in mice (CD45RBhigh cells into SCID animals); type: in vivo; conditions: for levels of pro-inflammatory cytokines in samples of colon tissue: adoptive transfer model; for % Inhibition: Table 6a, inhibition of the induction window between naïve and vehicle animals
Protocol: On Study day 0, female Balb/C mice are terminated and spleens obtained for CD45RB^high cell isolation (Using SCID IBD cell Separation protocol). Approximately 4×10^5 cells/mL CD45RB^high cells are then injected intraperitoneally (100 μL/mouse) into female SCID animals. On study day 14, mice are weighed and randomized into treatment groups based on body weight. On Day 14, compounds are administered BID, via oral gavage, in a peanut oil vehicle at the dose levels outlined below in Tables 6a and 6b and a dose volume of 5 mL/kg. Treatment continues until study day 42, at which point the animals are necropsied 4 hours after the morning administration. The colon length and weight are recorded and used as a secondary endpoint in the study as a measurement of colon oedema. The colon is then divided into six cross-sections, four of which are used for histopathology scoring (primary endpoint) and two are homogenised for cytokine analysis. Data shown is the % inhibition of the induction window between naïve animals and vehicle animals, where higher inhibition implies closer to the non-diseased, naïve, phenotype.

[5] = read-out: IC50 Values for Inhibition of Cytokine Release PBMCs IFNγ
[6] = read-out: IC50 Values for Inhibition of Cytokine Release PBMCs IL-2
[7] = read-out: IC50 Values for Inhibition of Cytokine Release PBMCs IL-8

SMILES | % Parent Remaining ([1]; DMSO/water 3:1, 0 min) [%] | % Parent Remaining ([1]; DMSO/water 3:1, 60° C., 300 min) [%] | % Parent Remaining ([1]; DMSO/water 3:1, 60° C., 1440 min) [%] | activity in TNBS-induced colitis (histopathology analysis) (BDF1 mice) | IC50 (HT29 cells) [nM] | IC50 (PBMCs [2]; [5]) [nM] | IC50 (PBMCs [2]; [6]) [nM] | inhibition at 5 µg/mL (PBMCs [3]) [%] | IC50 (PBMCs [4]; [7]) [nM] | levels of pro-inflammatory cytokines in samples of colon tissue (SCID animals) | activity in adoptive transfer model (ratios of colon weight to length) (SCID animals; end of the study) | % Inhibition (SCID animals; 3 mg/kg BID oral gavage) [%] | IC50 (PBMCs [4]; read-out: IC50 Values for Inhibition of Cytokine Release PBMCs TNFα) [nM] | % Inhibition (SCID animals; 0.3 mg/kg BID oral gavage) [%] | % Inhibition (SCID animals; 1 mg/kg BID oral gavage) [%]
C#Cc1cc(Nc2nccc(Oc3ccc(NC(=O)Nc4cc(C(C)(C)C)cc(NS(C)(=O)=O)c4OC)c4ccccc34)n2)cc(C(=O)NCCOCCOCCOC)c1 [Example 16, 3-((4-((4-(3-(5-(tert-Butyl)-2-methoxy-3-(methylsulfonamido)phenyl)ureido)naphthalen-1-yl)oxy)pyrimidin-2-yl)amino)-5-ethynyl-N-(2-(2-(2-methoxyethoxy)ethoxy)ethyl)benzamide] | 100 | 100 | 100 | displayed substantial activity | 8 | 7.3 | 74 | 20.5 | 1.5 | significantly reduced | displayed significant activity | – | – | – | –
COc1cc(Nc2cc(Oc3ccc(NC(=O)Nc4cc(C(C)(C)C)cc(NS(C)(=O)=O)c4OC)c4ccccc34)ccn2)cc(C(=O)NCCN2CCOCC2)c1 [Example 27, 3-((4-((4-(3-(5-(tert-Butyl)-2-methoxy-3-(methylsulfonamido)phenyl)ureido)naphthalen-1-yl)oxy)pyridin-2-yl)amino)-5-methoxy-N-(2-morpholinoethyl)benzamide] | 100 | – | – | displayed substantial activity | 8.3 | 11 | 46.3 | 49.8 | 1.9 | significantly reduced | – | 99 | – | – | –
COCCOCCOCCOc1cc(Nc2nccc(Oc3ccc(NC(=O)Nc4cc(C(C)(C)C)cc(NS(C)(=O)=O)c4OC)c4ccccc34)n2)cc(OC)c1 [Example 4, N-(5-(tert-Butyl)-2-methoxy-3-(3-(4-((2-((3-methoxy-5-(2-(2-(2-methoxyethoxy)ethoxy)-ethoxy)phenyl)amino)pyrimidin-4-yl)oxy)naphthalen-1-yl)ureido)phenyl)methanesulfonamide] | 100 | – | – | displayed substantial activity | 4.9 | 4.2 | 40.5 | 43 | 1.4 | significantly reduced | – | – | 0.7 | 62 | 110
